Structures are written as SMILES. The source made the active and inactive calls.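 Rule for the calls: active = fitted curve reaches 200% activation at or below the highest valid dose tested for that compound; inconclusive = flat fit between 30 and 70% activation, or unreliable fit; inactive = the rest.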

The target in one assay is Endoplasmic reticulum aminopeptidase 2 (Homo sapiens) (UniProt Q6P179). The assay is described as follows: enhanced ERAP2 Arg-AMC hydrolysis – biochemical, fluorescence plate reader, cherry-picked samples, selectivity assay for selective ERAP1 modulator project, dose response (AID 743319). As to conditions: recombinant ERAP2, Arg-AMC cleavage fluorescence, 1 h.
Chain of Endoplasmic reticulum aminopeptidase 2 (Homo sapiens) (Q6P179 whole entry, looked up): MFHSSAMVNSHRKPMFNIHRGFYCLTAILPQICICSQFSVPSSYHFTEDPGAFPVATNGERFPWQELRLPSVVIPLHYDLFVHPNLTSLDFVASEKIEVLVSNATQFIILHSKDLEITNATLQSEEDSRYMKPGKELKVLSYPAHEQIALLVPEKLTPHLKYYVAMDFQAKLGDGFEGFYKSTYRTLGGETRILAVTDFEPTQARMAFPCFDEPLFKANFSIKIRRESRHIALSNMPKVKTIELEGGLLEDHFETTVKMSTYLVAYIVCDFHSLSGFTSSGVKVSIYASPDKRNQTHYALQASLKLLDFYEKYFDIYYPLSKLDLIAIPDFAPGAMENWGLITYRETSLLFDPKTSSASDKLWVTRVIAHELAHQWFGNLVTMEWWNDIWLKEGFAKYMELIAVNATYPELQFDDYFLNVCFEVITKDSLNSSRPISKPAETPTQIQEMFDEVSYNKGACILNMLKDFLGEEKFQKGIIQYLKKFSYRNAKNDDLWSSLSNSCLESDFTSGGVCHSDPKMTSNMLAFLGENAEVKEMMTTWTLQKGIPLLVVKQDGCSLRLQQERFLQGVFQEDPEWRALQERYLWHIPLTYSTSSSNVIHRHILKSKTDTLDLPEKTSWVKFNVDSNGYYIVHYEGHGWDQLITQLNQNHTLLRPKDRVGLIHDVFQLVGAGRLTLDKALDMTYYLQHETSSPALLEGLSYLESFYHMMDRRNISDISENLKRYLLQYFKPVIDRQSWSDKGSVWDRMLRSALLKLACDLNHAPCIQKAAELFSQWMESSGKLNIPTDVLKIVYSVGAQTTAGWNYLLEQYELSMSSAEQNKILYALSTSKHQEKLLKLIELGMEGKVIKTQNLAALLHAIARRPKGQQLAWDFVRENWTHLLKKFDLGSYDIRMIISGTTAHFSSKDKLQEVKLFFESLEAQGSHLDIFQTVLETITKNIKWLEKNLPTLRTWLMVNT
On to `CN(C)Cc1c(O)ccc2cc(-c3nc4ccccc4n3C)c(=O)oc12`, for which the AC200 is 445 nM.
`CCC(=O)N1[C@@H]2c3ccc(/C=C/c4ccccc4)c(=O)n3C[C@H]1[C@H](CO)[C@H]2C(=O)N(C)C`: the AC200 is 1690 nM.
Still for that read-out and setting: next, `O=c1ccc2cc(O[C@@H]3O[C@@H](CO)[C@H](O)[C@@H](O)[C@@H]3O)c(O)cc2o1`: 744 nM; `Cc1cc(=O)oc2cc(OCC(=O)N3CCN(C(C)c4ccccc4)CC3)c(Cl)cc12` (stereo not given): 3960 nM; `Cc1c(C)c2ccc(O)c(CN3CCCC3)c2oc1=O`: 2100 nM.
In the case of `O=C(NCc1ccccn1)[C@@H]1[C@@H](CO)[C@@H]2Cn3c(ccc(/C=C/c4ccccc4)c3=O)[C@H]1N2CC1CC1`, the AC200 was 2270 nM.
`Cc1c(O)ccc2cc(S(=O)(=O)c3ccccc3)c(=O)oc12`: the AC200 is 860 nM.
In the case of `CCCN1[C@@H]2c3ccc(/C=C/c4ccccc4)c(=O)n3C[C@H]1[C@H](CO)[C@H]2C(=O)NCc1ccccn1`, the AC200 is 2190 nM.
For `CCN(CC)Cc1c(O)ccc2cc(-c3nc4ccccc4n3C)c(=O)oc12`, the AC200 is 436 nM.
As to `Cc1c(CC(=O)N2CCN(C(=O)C3COc4ccccc4O3)CC2)c(=O)oc2cc(O)c(Cl)cc12` (stereo not given), the AC200 is 1520 nM.
With `COc1cc2cc(C(=O)N3CCN(Cc4ccc5c(c4)OCO5)CC3)c(=O)oc2cc1OC`, the AC200 is > 5600 nM (inactive).
`COc1ccc(-c2cc3ccc(O)cc3oc2=O)cc1`: the AC200 was 775 nM.
Turning to `CN1[C@@H]2Cn3c(ccc(/C=C/c4ccccc4)c3=O)[C@H]1[C@@H](C(=O)NC1CCCC1)[C@@H]2CO`, the AC200 is 1900 nM.
In the case of `CC1CN(Cc2cc(=O)oc3cc(O)c(Cl)cc23)CC(C)O1` (stereo not given), the AC200 is 2520 nM.
Turning to `Cc1ccc(-c2cc(C(=O)N3CCCC3)c3ccccc3n2)s1`, the AC200 is > 11000 nM (inactive).
For the compound `O=C(NCC1CC1)[C@H]1[C@H](CO)[C@H]2Cn3c(ccc(/C=C/c4ccccc4)c3=O)[C@@H]1N2C(=O)C1CC1`, the AC200 was 1770 nM.
Same read-out and setting: the value for `CN1CCCC1CCNc1ccc2c(=O)c3ccccc3oc2c1` (stereo not given) was 1140 nM; that for `CCNC(=O)[C@@H]1[C@@H](CO)[C@@H]2Cn3c(ccc(/C=C/c4ccccc4)c3=O)[C@H]1N2C(=O)C1CCCC1` was 1590 nM.
Consider `CCN1CCN(Cc2c(O)ccc3c(C)cc(=O)oc23)CC1`, for which the AC200 was 3230 nM.
Turning to `O=S(=O)(O)c1ccc(N2N=C(c3ccccc3)CC2c2ccccc2)cc1` (stereo not given), the AC200 was 2050 nM.
Take `COc1ccc(-c2cc3ccc(O)cc3oc2=O)cc1OC`: the AC200 was 1880 nM.
For `COc1cc2ccc(=O)oc2cc1O`, the AC200 is 678 nM.
`C/C(=N\NC(=O)CC#N)c1cc2ccc(O)cc2oc1=O`: the AC200 was 2300 nM.
Turning to `O=c1oc2c(CN3CCN(CCO)CC3)c(O)ccc2cc1-c1ccccn1`, the AC200 was 606 nM.
As to `COCC(=O)N1[C@@H]2c3ccc(/C=C/c4ccccc4)c(=O)n3C[C@H]1[C@H](CO)[C@H]2C(=O)N1CCOCC1`, the AC200 was 1500 nM.
With `COCC(=O)N1[C@@H]2Cn3c(ccc(/C=C/c4ccccc4)c3=O)[C@H]1[C@@H](C(=O)N1CCOCC1)[C@@H]2CO`, the AC200 was 1550 nM.
As for `CCN(CC)Cc1c(O)c(Cl)cc2c(C)cc(=O)oc12`, the AC200 was 1240 nM.
For the compound `CCc1cc(=O)oc2c(CNCc3c(F)cccc3Cl)c(O)ccc12`, the AC200 was 1870 nM.
For `CC(=O)N1[C@@H]2c3ccc(/C=C/c4ccccc4)c(=O)n3C[C@H]1[C@H](CO)[C@H]2C(=O)N1CCOCC1`, the AC200 is 2030 nM.
With `CC(=O)Oc1cc2oc(=O)cc(C)c2cc1Cl`, the AC200 is 1100 nM.
In the case of `Cc1cc(=O)oc2c(CN3CCN(CCO)CC3)c(O)ccc12`, the AC200 is 3010 nM.

Staying with this assay, now noted: recombinant ERAP2, Arg-AMC cleavage fluorescence, 1 h; at 2.6 µM (top of the series).
Regarding `C[C@@H]1CCCCO[C@@H](CN(C)C(=O)CCC(F)(F)F)[C@@H](C)CN([C@@H](C)CO)C(=O)c2cc(NS(=O)(=O)c3ccccc3)ccc2O1`, the activation is 14.4% (inactive).

Still in this assay, the particulars now being: recombinant ERAP2, Arg-AMC cleavage fluorescence, 1 h; at 5 µM (top of the series).
On to `CCCN(C)C[C@@H]1OCCCC[C@@H](C)Oc2ccc(NS(=O)(=O)c3ccc(C)cc3)cc2C(=O)N([C@@H](C)CO)C[C@@H]1C`, for which the activation is 6.28% (inactive).

Still in this assay, the particulars now being: recombinant ERAP2, Arg-AMC cleavage fluorescence, 1 h; at 5.6 µM (top of the series).
With `COc1ccc(S(=O)(=O)N(C)C[C@@H]2Oc3ncccc3C(=O)N([C@H](C)CO)C[C@@H]2C)cc1`, the activation is 11.3% (inactive).

Staying with this assay, now noted: recombinant ERAP2, Arg-AMC cleavage fluorescence, 1 h; at 8 µM (top of the series).
In the case of `CCCN(C)C[C@@H]1OCCCC[C@@H](C)Oc2ccc(NS(=O)(=O)c3ccc(OC)cc3)cc2C(=O)N([C@H](C)CO)C[C@@H]1C`, the activation was 15.1% (inactive).

Staying with this assay, now noted: recombinant ERAP2, Arg-AMC cleavage fluorescence, 1 h; at 10 µM (top of the series).
Take `CCCN(C)C[C@@H]1OCCCC[C@@H](C)Oc2ccc(NS(=O)(=O)c3ccc(C)cc3)cc2C(=O)N([C@H](C)CO)C[C@@H]1C`: the activation was 6.04% (inactive).
Take `Cc1noc(C)c1S(=O)(=O)Nc1ccc2c(c1)C(=O)N([C@H](C)CO)C[C@H](C)[C@H](CN(C)Cc1ccc3c(c1)OCO3)OCCCC[C@@H](C)O2`: the activation was 11.2% (inactive).

The same assay, now with this note: recombinant ERAP2, Arg-AMC cleavage fluorescence, 1 h; at 11 µM (top of the series).
Regarding `COc1ccc(CN(C)C[C@@H]2OCCCC[C@@H](C)Oc3ccc(NS(=O)(=O)c4cccs4)cc3C(=O)N([C@@H](C)CO)C[C@H]2C)cc1`, the activation was -1.25% (inactive).
The same measure, in the same setting: the value for `CCC(=O)N(C)C[C@H]1Oc2ncc(C#Cc3ccncc3)cc2C(=O)N([C@H](C)CO)C[C@H]1C` was -5.99% (inactive).
Regarding `COc1ccc(CN(C)C[C@@H]2OCCCC[C@@H](C)Oc3ccc(NS(=O)(=O)c4cccs4)cc3C(=O)N([C@H](C)CO)C[C@@H]2C)cc1`, the activation was 10.9% (inactive).
`COc1ccc(CN(C)C[C@@H]2OCCCC[C@@H](C)Oc3ccc(NS(=O)(=O)c4cccs4)cc3C(=O)N([C@H](C)CO)C[C@H]2C)cc1`: the activation is 1.04% (inactive).
With `CCCN(C)C[C@@H]1OCCCC[C@@H](C)Oc2ccc(NS(=O)(=O)c3ccc(F)cc3)cc2C(=O)N([C@H](C)CO)C[C@@H]1C`, the activation is 10.6% (inactive).
On to `Cc1ccccc1-c1ccc2c(c1)O[C@@H](CN(C)Cc1ccc(C(=O)O)cc1)[C@@H](C)CN([C@@H](C)CO)S2(=O)=O`, for which the activation is 0.523% (inactive).
With `O=C(C[C@H]1CC[C@@H]2[C@H](COC[C@@H](O)CN2C(=O)Nc2cccc(Cl)c2)O1)N1CCCCC1`, the activation is 32.4% (inactive).
Consider `C[C@@H]1CCCCO[C@H](CN(C)Cc2ccc(C(=O)O)cc2)[C@H](C)CN([C@@H](C)CO)C(=O)c2cc(NC(=O)Nc3ccc(C(F)(F)F)cc3)ccc2O1`, for which the activation is 11.3% (inactive).
Consider `C[C@@H]1CCCCO[C@@H](CN(C)Cc2ccccc2)[C@H](C)CN([C@H](C)CO)C(=O)c2cc(NS(=O)(=O)c3cccs3)ccc2O1`, for which the activation was 6.39% (inactive).
Still for that read-out and setting: the value for `CNC[C@H]1OCCCC[C@@H](C)Oc2ccc(NS(=O)(=O)c3ccc(C)cc3)cc2C(=O)N([C@@H](C)CO)C[C@H]1C` was 1.54% (inactive); that for `C[C@H](CO)N1C[C@H](C)[C@H](CN(C)Cc2ccncc2)Oc2c(NC(=O)Nc3ccc(C(F)(F)F)cc3)cccc2C1=O` was 4.68% (inactive); that for `Cc1noc(C)c1NC(=O)Nc1ccc2c(c1)C(=O)N([C@H](C)CO)C[C@@H](C)[C@@H](CN(C)Cc1ccc(C(F)(F)F)cc1)OCCCC[C@@H](C)O2` was -2.75% (inactive).
For the compound `C[C@@H]1CCCCO[C@H](CN(C)C)[C@H](C)CN([C@H](C)CO)C(=O)c2cc(NS(=O)(=O)c3ccc(Cl)cc3)ccc2O1`, the activation is 16.7% (inactive).
Consider `C[C@@H]1CCCCO[C@@H](CN(C)Cc2ccc(C(=O)O)cc2)[C@H](C)CN([C@@H](C)CO)C(=O)c2cc(NS(=O)(=O)c3ccc(Cl)cc3)ccc2O1`, for which the activation is 24.2% (inactive).
The same measure, in the same setting: the value for `C[C@@H]1CN([C@H](C)CO)C(=O)c2cc(NC(=O)Nc3ccc(F)cc3)ccc2O[C@H]1CN(C)Cc1ccc(C(=O)O)cc1` was 1.24% (inactive); that for `Cc1cc(=O)oc2c(CN3CCN(C)CC3)c(O)c(Cl)cc12` was 12% (inactive); that for `COc1ccc2c3c([nH]c2c1)[C@H](CO)N(Cc1cc(F)ccc1F)CC31CN(C)C1` was 11.2% (inactive).
Regarding `C[C@H]1CN([C@@H](C)CO)C(=O)c2cccc(NC(=O)Nc3ccc(C(F)(F)F)cc3)c2O[C@@H]1CN(C)CC1CC1`, the activation is -16.1% (inactive).
For `COc1ccc(CN(C)C[C@@H]2OCCCC[C@H](C)Oc3ccc(NS(=O)(=O)c4cccs4)cc3C(=O)N([C@@H](C)CO)C[C@@H]2C)cc1`, the activation was 20.4% (inactive).
Turning to `C[C@@H]1CCCCO[C@@H](CN(C)Cc2ccc3c(c2)OCO3)[C@@H](C)CN([C@H](C)CO)C(=O)c2cc(NS(=O)(=O)c3cccs3)ccc2O1`, the activation was 1.03% (inactive).
On to `C[C@H](CO)N1C[C@H](C)[C@@H](CN(C)CC2CC2)Oc2c(NC(=O)Nc3ccc(C(F)(F)F)cc3)cccc2C1=O`, for which the activation was -20.2% (inactive).
For the compound `COc1ccc(CN(C)C[C@H]2OCCCC[C@@H](C)Oc3ccc(NS(=O)(=O)c4cccs4)cc3C(=O)N([C@@H](C)CO)C[C@@H]2C)cc1`, the activation was 10.1% (inactive).
In the case of `CCN(CCCl)c1cc(CN(C)C)cc(NC(=O)c2ccc(C(=O)Nc3cc(CN(C)C)cc(N(CC)CCCl)c3)cc2)c1`, the activation was -8.9% (inactive).
Consider `Cc1ccc(S(=O)(=O)Nc2ccc3c(c2)C(=O)N([C@@H](C)CO)C[C@H](C)[C@H](CN(C)C)OCCCC[C@@H](C)O3)cc1`, for which the activation is 14.1% (inactive).
As for `C[C@H](CO)N1C[C@H](C)[C@H](CN(C)CC2CCCCC2)Oc2c(NC(=O)Nc3ccc(C(F)(F)F)cc3)cccc2C1=O`, the activation is 11.4% (inactive).
The same measure, in the same setting: the value for `CC(=O)N1CCN(C(=O)C2(NC(=O)Nc3ccc(C)cc3)CCCCC2)CC1` was 2.05% (inactive).
For `Cc1noc(C)c1NC(=O)N(C)C[C@@H]1Oc2c(NC(=O)Nc3ccc(F)cc3)cccc2C(=O)N([C@H](C)CO)C[C@@H]1C`, the activation was 18.4% (inactive).
For the compound `C[C@@H]1CCCCO[C@@H](CN(C)S(C)(=O)=O)[C@@H](C)CN([C@@H](C)CO)C(=O)c2cc(NS(=O)(=O)c3ccc(Cl)cc3)ccc2O1`, the activation was 9.01% (inactive).

Source of the values: PubChem BioAssay AID743319 (Broad Institute, 2014).
